Here are results for 19 compounds from BindingDB's records for doi:10.1021/jm980023c (F. Hoffmann-La Roche, 1998).

The target in the first test is Beta-lactamase TEM-3 (Escherichia coli). As to the kind of experiment: Inhibitory activity against Escherichia coli TEM-3 Beta-lactamase.
In turn, `NC(=O)c1ccc[n+](CC(=O)N2CC[C@@H]3[C@H]2C(=O)N3S(=O)(=O)[O-])c1` had an IC50 of 0.7 µM. This counts as sub-micromolar. Same read-out and setting: as for `Cn1ccnc1SCC(=O)N1CC[C@@H]2[C@H]1C(=O)N2S(=O)(=O)O` [Sodium; (1S,5R)-2-[2-(1-methyl-1H-imidazol-2-ylsulfanyl)-acetyl]-7-oxo-2,6-diaza-bicyclo[3.2.0]heptane-6-sulfonate], the figure is greater than 100 µM; as for `O=C1NCC[C@@H]1NC(=O)N1CC[C@@H]2[C@H]1C(=O)N2S(=O)(=O)O` [Sodium; (1S,5R)-7-oxo-2-((S)-2-oxo-pyrrolidin-3-ylcarbamoyl)-2,6-diaza-bicyclo[3.2.0]heptane-6-sulfonate], greater than 100 µM.

As to `O=C(CNc1ccc(O)cc1)N1CC[C@@H]2[C@H]1C(=O)N2S(=O)(=O)O` [Sodium; (1S,5R)-2-[2-(4-hydroxy-phenylamino)-acetyl]-7-oxo-2,6-diaza-bicyclo[3.2.0]heptane-6-sulfonate], the IC50 worked out at 79.2 µM.

`O=C(OCc1ccccc1)N1CC[C@@H]2[C@H]1C(=O)N2S(=O)(=O)O` [Sodium; (1S,5R)-2-benzyloxycarbonyl-7-oxo-2,6-diaza-bicyclo[3.2.0]heptane-6-sulfonate] yielded an IC50 greater than 100 µM. Same read-out and setting: as for `Cn1nnnc1SCC(=O)N1CC[C@@H]2[C@H]1C(=O)N2S(=O)(=O)O` [Sodium; (1S,5R)-2-[2-(1-methyl-1H-tetrazol-5-ylsulfanyl)-acetyl]-7-oxo-2,6-diaza-bicyclo[3.2.0]heptane-6-sulfonate], the figure is greater than 100 µM; as for `Cn1cnnc1SCC(=O)N1CC[C@@H]2[C@H]1C(=O)N2S(=O)(=O)O` [Sodium; (1S,5R)-2-[2-(4-methyl-4H-[1,2,4]triazol-3-ylsulfanyl)-acetyl]-7-oxo-2,6-diaza-bicyclo[3.2.0]heptane-6-sulfonate], greater than 100 µM. The same measure, in the same setting: then `O=C(OCc1ccccc1)N1C[C@H](F)[C@@H]2[C@H]1C(=O)N2S(=O)(=O)O` [Sodium; (1S,4S,5S)-2-benzyloxycarbonyl-4-fluoro-7-oxo-2,6-diaza-bicyclo[3.2.0]heptane-6-sulfonate], with 0.511 µM; and `NC(=O)/C=C1\CN(C(=O)OCc2ccccc2)[C@@H]2C(=O)N(S(=O)(=O)O)[C@H]12` [Sodium; (1S,5R)-2-benzyloxycarbonyl-4-[1-carbamoyl-meth-(E)-ylidene]-7-oxo-2,6-diaza-bicyclo[3.2.0]heptane-6-sulfonate], with 0.031 µM. `Cc1nn(C)c(SCC(=O)N2CC[C@@H]3[C@H]2C(=O)N3S(=O)(=O)O)nc1=O` [Sodium; (1S,5R)-2-[2-(2,6-dimethyl-5-oxo-2,5-dihydro-[1,2,4]triazin-3-ylsulfanyl)-acetyl]-7-oxo-2,6-diaza-bicyclo[3.2.0]heptane-6-sulfonate]: the IC50 is greater than 100 µM. The compound `NC(=O)c1cccc(NC(=O)N2CC[C@@H]3[C@H]2C(=O)N3S(=O)(=O)O)c1` [Sodium; (1S,5R)-2-(3-carbamoyl-phenylcarbamoyl)-7-oxo-2,6-diaza-bicyclo[3.2.0]heptane-6-sulfonate] gave an IC50 of 4 µM. That is a single-digit micromolar value. On the same count and under the same terms, then `NC(=O)c1ccc(NC(=O)N2CC[C@@H]3[C@H]2C(=O)N3S(=O)(=O)O)cc1` [Sodium; (1S,5R)-2-(4-carbamoyl-phenylcarbamoyl)-7-oxo-2,6-diaza-bicyclo[3.2.0]heptane-6-sulfonate], with greater than 100 µM. Same read-out and setting: as for `NC(C(=O)N1CC[C@@H]2[C@H]1C(=O)N2S(=O)(=O)O)c1ccc(O)cc1` (stereo partly drawn) [Sodium; (1S,5R)-2-[2-amino-2-(4-hydroxy-phenyl)-acetyl]-7-oxo-2,6-diaza-bicyclo[3.2.0]heptane-6-sulfonate], the figure is greater than 100 µM; as for `O=C(NC1CCNCC1)N1CC[C@@H]2[C@H]1C(=O)N2S(=O)(=O)O` [Sodium; (1S,5R)-7-oxo-2-(piperidin-4-ylcarbamoyl)-2,6-diaza-bicyclo[3.2.0]heptane-6-sulfonate], greater than 100 µM; as for `O=C(Nc1ccc(O)cc1)N1CC[C@@H]2[C@H]1C(=O)N2S(=O)(=O)O` [Sodium; (1S,5R)-2-(4-hydroxy-phenylcarbamoyl)-7-oxo-2,6-diaza-bicyclo[3.2.0]heptane-6-sulfonate], greater than 100 µM. Still for that read-out and setting: then `NC(=O)Nc1ccc(NC(=O)N2CC[C@@H]3[C@H]2C(=O)N3S(=O)(=O)O)cc1` [Sodium; (1S,5R)-7-oxo-2-(4-ureido-phenylcarbamoyl)-2,6-diaza-bicyclo[3.2.0]heptane-6-sulfonate], with 100 µM; and `CC(C)(C)OC(=O)N1CC[C@@H]2[C@H]1C(=O)N2S(=O)(=O)O` [Sodium; (1S,5R)-2-tert-butoxycarbonyl-7-oxo-2,6-diaza-bicyclo[3.2.0]heptane-6-sulfonate], with greater than 100 µM. Consider `CC(C)(C)OC(=O)N1CCC[C@@H]2[C@H]1C(=O)N2S(=O)(=O)O` [Sodium; (1S,6R)-2-tert-butoxycarbonyl-8-oxo-2,7-diaza-bicyclo[4.2.0]octane-7-sulfonate], for which the concentration for half-maximal inhibition (IC50) was greater than 100 µM. On the same count and under the same terms, as for `Cn1nnnc1S[C@@H]1CN(C(=O)OCc2ccccc2)[C@@H]2C(=O)N(S(=O)(=O)O)[C@@H]21` [Sodium; (1S,4R,5S)-2-benzyloxycarbonyl-4-(1-methyl-1H-tetrazol-5-ylsulfanyl)-7-oxo-2,6-diaza-bicyclo[3.2.0]heptane-6-sulfonate], the figure is 0.035 µM.

In the next test the target is Beta-lactamase (Pseudomonas aeruginosa (strain ATCC 15692 / DSM 22644 / CIP 104116 / JCM 14847 / LMG 12228 / 1C / PRS 101 / PAO1), UniProt P24735). As to the kind of experiment: Deacylation of 18SH Beta-lactamase of Pseudomonas aeruginosa.
Sequence of Beta-lactamase (P24735 whole entry): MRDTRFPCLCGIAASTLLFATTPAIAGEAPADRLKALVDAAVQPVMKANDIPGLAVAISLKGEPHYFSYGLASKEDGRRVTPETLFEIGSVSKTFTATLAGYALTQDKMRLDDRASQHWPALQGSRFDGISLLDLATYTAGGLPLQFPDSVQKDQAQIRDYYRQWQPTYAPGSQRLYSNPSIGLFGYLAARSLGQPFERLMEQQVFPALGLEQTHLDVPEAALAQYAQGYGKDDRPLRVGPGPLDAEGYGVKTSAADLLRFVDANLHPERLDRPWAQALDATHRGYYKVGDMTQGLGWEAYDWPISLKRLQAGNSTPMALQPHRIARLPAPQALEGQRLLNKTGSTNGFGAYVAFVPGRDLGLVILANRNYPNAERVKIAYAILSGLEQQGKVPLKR
As for `O=C(NC1CCNCC1)N1CC[C@@H]2[C@H]1C(=O)N2S(=O)(=O)O` [Sodium; (1S,5R)-7-oxo-2-(piperidin-4-ylcarbamoyl)-2,6-diaza-bicyclo[3.2.0]heptane-6-sulfonate], the “koff” value came out at 0.0012 s⁻¹.

In the case of `CC(C)(C)OC(=O)N1CC[C@@H]2[C@H]1C(=O)N2S(=O)(=O)O` [Sodium; (1S,5R)-2-tert-butoxycarbonyl-7-oxo-2,6-diaza-bicyclo[3.2.0]heptane-6-sulfonate], the “koff” value was 0.000037 s⁻¹. `CC(C)(C)OC(=O)N1CCC[C@@H]2[C@H]1C(=O)N2S(=O)(=O)O` [Sodium; (1S,6R)-2-tert-butoxycarbonyl-8-oxo-2,7-diaza-bicyclo[4.2.0]octane-7-sulfonate]: the dissociation rate constant (koff) turned out to be 0.0007 s⁻¹.
